Measurements as given in patent US11844841B2, “Dosing regimens and related compositions and methods” (Apellis Pharmaceuticals, Inc., priority 2017, dated 2023).

Key:
[1] = Phase 1 single and multiple ascending dose trial of inhaled (nebulized) CA28 in healthy volunteers; type: in vivo, human; details: for adverse event: one subject
Experimental: In the single ascending dose part of the trial, 16 subjects were enrolled in four cohorts of four subjects each.
Four subjects were enrolled in the first cohort of the multiple ascending dose part of the trial. These subjects were to receive 14 consecutive days of treatment with a 60 mg/day dose of the drug. […] The trial was paused and subsequently resumed, with subjects receiving 30 mg/day. […] The trial was then terminated.

[2] = Inhalation study, repeated dosing; details: in vivo, inhaled or intranasal, 25 mg/kg/d; 7 day repeated dose study in the dog
Experimental: (§1) Inhalation studies of single dose or repeated dosing were conducted in dog and cynomolgus monkey. […] These doses were 25 mg/kg/d in a 7 day repeated dose study in the dog, 80 mg/kg in a single dose study in the monkey, and 30 mg/kg/day in a 14 day repeated dose in the monkey.

[3] = Inhalation studies, single dose and repeated dosing; type: in vivo, cynomolgus monkey
Experimental: as §1

PNH RBCs = assay: Modified Ham's assay, comparison with Soliris (Example 19); type: cell-based, human; details: CA28-2GS-BF 50 ug/ml
Experimental: Flow cytometry was performed after antibody staining using antibodies against CD59 and C3d. In this figure, quadrant 1 (Q1) and quadrant 3 (Q3) represent Type III cells. Quadrant 2 (Q2) and quadrant 4 (Q4) represent Types I and II cells. Q1 and Q2 represent cells with a significant and abnormally high amount of C3 activation product (e.g., C3d) deposition. Q3 and Q4 represent cells without significant C3d deposition or somewhat elevated level (right portion of Q4) but less so than Q2 cells.

[4] = test system: complement activation via the classical pathway; assay: Classical complement inhibition assay (C3b deposition ELISA); type: biochemical, human
Experimental: Inhibitory activity of the synthesized compounds was assessed by measuring the effect of the compounds on complement activation via the classical pathway using a standard complement inhibition assay. The protocol measures C3b deposition in an ELISA format. C3b deposition monitored using this method is generated through complement activated by the classical pathway. Briefly, 96-well plates are coated with BSA. Human plasma, chicken ovalbumin (OVA), polyclonal anti-OVA antibodies and compound being tested (referred to as “drug”) are added and incubated, followed by addition of Anti-human C3 HRP-conjugated antibody. After an additional incubation, substrate is added and signal detected. Details of the protocol are as follows:
Protocol for Classical Complement Inhibition Assay
• Ninety-six well plate (polystyrene plate, Thermo Scientific, 9205) • Chicken OVA (Sigma A5503-5G) • Rabbit anti-chicken OVA (Abcam ab1221) • Blocking buffer (Startingblock buffer, Thermo Scientific 37538) • Veronal Buffer (5× concentration, Lonza 12-624E) • Human plasma (collected with Lepirudin at 50 ug/ml final concentration) • Goat anti-human C3 HRP-conjugated Ab (MP Biomedicals, 55237) • Tween-20 Wash Buffer (0.05% Tween 20-PBS buffer) • TMB (Peroxidase substrate, BD 555214)—1:1 mixture of BD 51-2607KC and 51-2606KC. • 1M H2SO4 Protocol: • 1. […]
Data was analyzed using GraphPad Prism5 software. […]

[5] = test system: RBCs from a patient with PNH; assay: Modified Ham's test with flow cytometry for CD59 and C3d (Example 18); type: cell-based, human
Experimental: A modified Ham's test was performed to assess the ability of compstatin analogs to protect PNH RBCs from complement-mediated lysis. […] Exposure to heat inactivated human serum was used as a control representing no significant complement-mediated lysis as complement is inactivated by heat. Exposure to acidified human serum and magnesium (Mg^2+) in the absence of complement inhibitors (pane labeled Mg^2+) was used as a control representing maximum lysis.
Following incubation, cells were stained with antibodies to CD59 and C3d. CD59 level permitted the classification of the PNH RBCs as Type I, Type II, or Type III. Staining for C3d, a product of C3 activation and cleavage was used as a marker of C3 and C3 activation product deposition (loading). Flow cytometric analysis was performed to assess CD59 and C3d on RBC surfaces and to quantify the percentages of Type I, Type II, and Type III cells present in various samples.
Type I cells (shown in orange in FIG. 12) have normal levels of CD59. Type III cells (shown in blue in FIG. 12) have essentially no detectable CD59. […] Type II cells (shown in purple in FIG. 12) have reduced levels of CD59 as compared with normal or Type I cells and have an intermediate sensitivity to complement-mediated lysis. […] Type II cells may eventually lyse in the presence of activated complement but can accumulate a considerable amount of C3 activation products such as C3d before they do so. Reduction in or absence of lysis may be evidenced by increased levels of C3 or C3 activation products on Type II cells, as is evident by comparing the level of C3d on Type II cells in the no lysis panel with the level of C3d on Type II cells in the max. lysis panel in both FIGS. 12(A) and 12(B). […] A shift in the relative percentages of Type I, II, and III cells from the percentages present in the max. lysis control panels (Mg^2+) towards the percentages present in the no lysis control panels (heat inactivated serum) is indicative of protection against complement-mediated lysis. The column labeled % C′3 in Table 11 refers to the percentage of cells deemed “positive” for presence of C3 and C3 activation products (“C3 loading”).

CC[C@H](C)[C@H](NC(C)=O)C(=O)N[C@H]1CSSC[C@@H](C(=O)N[C@H](C(N)=O)[C@@H](C)O)NC(=O)[C@H](CCCNC(=N)N)NC(=O)[C@H](Cc2cnc[nH]2)NC(=O)[C@H](C)NC(=O)CNC(=O)[C@H](Cc2c[nH]c3ccccc23)NC(=O)[C@H](CC(=O)O)NC(=O)[C@H](CCC(N)=O)NC(=O)[C@H](Cc2cn(C)c3ccccc23)NC(=O)[C@H](C(C)C)NC1=O [CA28]
adverse event ([1]; 30 mg/day inhaled, after 10 days of treatment): signs and symptoms consistent with a potential bacterial infection | adverse event ([1]; 60 mg/day inhaled, after nine days of treatment): signs and symptoms consistent with a potential bacterial infection | safety and tolerability ([1]; single inhaled doses 20, 60, 150 or 350 mg): well tolerated and no serious adverse events were reported | NOAEL at 168 h [2]: 25 mg/kg/day | highest inhaled dose tested, no drug-related findings ([3]; 14 day repeated dose in the monkey): 30 mg/kg/day | NOAEL ([3]; cynomolgus monkey, in vivo, inhaled or intranasal, 80 mg/kg, single dose study in the monkey): 80 mg/kg

CA28-2GS-BF: Bifunctional linear 40 kD PEG of the GS (glutaryl NHS ester) type coupled to two CA28-AEEAc-Lys moieties
deposition of C3d on PNH RBCs (PNH RBCs): essentially no deposition of C3d | complement inhibiting activity, comparison in words [4]: virtually identical | Type I % C′3 ([5]; compound at 20 micrograms/ml): 2.18% | Type II % C′3 ([5]; compound at 20 micrograms/ml): 12.28% | Type III % C′3 ([5]; compound at 20 micrograms/ml): 0.99% | Type I % C′3 ([5]; compound at 40 micrograms/ml): 2.84% | Type III % C′3 ([5]; compound at 40 micrograms/ml): 1.21% | Type I % C′3 ([5]; compound at 50 micrograms/ml): 2.26% | Type III % C′3 ([5]; compound at 50 micrograms/ml): 1.29% | Type I % C′3 ([5]; compound at 60 micrograms/ml): 2.05% | Type II % C′3 ([5]; compound at 60 micrograms/ml): 13.04% | Type III % C′3 ([5]; compound at 60 micrograms/ml): 1.44% | Type I % C′3 ([5]; compound at 100 micrograms/ml): 0.07% | Type II % C′3 ([5]; compound at 100 micrograms/ml): 0.88% | Type III % C′3 ([5]; compound at 100 micrograms/ml): 0.11% | Type I % C′3 ([5]; compound at 200 micrograms/ml): 0.02% | Type II % C′3 ([5]; compound at 200 micrograms/ml): 0.26% | Type III % C′3 ([5]; compound at 200 micrograms/ml): 0.02% | Type I % C′3 ([5]; compound at 500 micrograms/ml): 0.04% | Type II % C′3 ([5]; compound at 500 micrograms/ml): 0.3% | Type III % C′3 ([5]; compound at 500 micrograms/ml): 0.05% | protection of PNH RBCs from complement-mediated lysis ([5]; in the presence of 100 ug/ml or more compstatin analog): complete protection from complement-mediated lysis
